Experimental data reported in patent publication US11072596B2, “Poly(ADP-ribose) polymerase inhibitor, preparation method and use” (SELECTION BIOSCIENCE LLC, priority 2017, dated 2021).

Target: T1, PARP1 (Homo sapiens, UniProt P09874)
T1 construct: purchased BPS 80580
Assay: PARP1 Colorimetric Assay (PARP-1 kinase inhibitory activity)
Type: biochemical
Conditions: PARP1 colorimetric assay kit, 1 hour at room temperature; read-out: PARP1 (in vitro enzymatic inhibitory activity, IC50)
Experimental: PARP1 kinase activity was tested by the following method:
PARP1 Colorimetric Assay Kit (BPS, Cat #80580)
1. PARP1 Colorimetric Assay
2) 50 μL of diluted coating solution was added to each well for overnight at 4° C.
4) 200 μL of blocking buffer was added to each well and incubated at room temperature for 90 minutes.
1) A reaction solution was prepared in a ratio of […] 2.5 μL 10×PARP buffer+2.5 μL 10×PARP Assay mixture+5 μL Activated DNA+15 μL deionized water per well, and 25 μL of the reaction solution was added to each well (see Table 1).
4) 100 μL of colorimetric HRP substrate was added to each well and reacted at room temperature for 20 minutes.
5) 100 μL of 2 M H2SO4 was added to each well and OD 450 nm was read on a microplate reader.

T1 sequence (P09874 whole entry): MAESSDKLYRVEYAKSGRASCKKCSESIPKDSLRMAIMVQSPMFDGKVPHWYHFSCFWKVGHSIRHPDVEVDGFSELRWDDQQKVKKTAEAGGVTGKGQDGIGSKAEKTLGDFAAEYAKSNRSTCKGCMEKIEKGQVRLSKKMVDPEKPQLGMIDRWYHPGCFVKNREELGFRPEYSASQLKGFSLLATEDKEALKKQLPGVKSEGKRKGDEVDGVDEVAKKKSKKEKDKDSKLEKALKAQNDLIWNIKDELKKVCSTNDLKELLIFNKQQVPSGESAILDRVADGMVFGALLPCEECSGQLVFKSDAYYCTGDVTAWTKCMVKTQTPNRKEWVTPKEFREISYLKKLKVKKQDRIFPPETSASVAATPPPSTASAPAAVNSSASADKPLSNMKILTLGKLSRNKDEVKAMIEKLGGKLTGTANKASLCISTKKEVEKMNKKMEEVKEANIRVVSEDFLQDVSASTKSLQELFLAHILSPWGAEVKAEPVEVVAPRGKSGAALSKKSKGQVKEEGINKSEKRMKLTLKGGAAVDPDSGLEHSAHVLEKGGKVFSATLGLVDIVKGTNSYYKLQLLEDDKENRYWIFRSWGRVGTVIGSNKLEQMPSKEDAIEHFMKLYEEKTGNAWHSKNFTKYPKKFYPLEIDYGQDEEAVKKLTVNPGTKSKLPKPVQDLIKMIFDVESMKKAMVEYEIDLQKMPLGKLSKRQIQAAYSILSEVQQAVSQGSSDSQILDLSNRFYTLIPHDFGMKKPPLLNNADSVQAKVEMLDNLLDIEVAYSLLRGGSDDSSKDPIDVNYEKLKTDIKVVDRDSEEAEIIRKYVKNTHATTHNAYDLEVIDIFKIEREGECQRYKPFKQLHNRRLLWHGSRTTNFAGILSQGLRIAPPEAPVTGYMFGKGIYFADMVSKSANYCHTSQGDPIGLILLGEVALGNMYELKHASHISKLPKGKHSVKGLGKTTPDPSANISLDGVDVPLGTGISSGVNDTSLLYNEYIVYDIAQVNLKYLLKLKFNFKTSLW

IC50 [nM]	Structure (SMILES)
100 to 500	NC(=O)c1cccc2cn(-c3ccc(C4(F)CCCNC4)cc3F)nc12 (centres unmarked) [Example 34]
< 100	[2H][C@@]1(c2ccc(-n3cc4cc(F)cc(C(N)=O)c4n3)cc2F)CCCNC1 [Example 17]
< 100	[2H]C1(c2ccc(-n3cc4cc(F)cc(C(N)=O)c4n3)c(F)c2)CCCNC1 (centres unmarked) [Example 19]
100 to 500	NC(=O)c1cccc2cn(-c3ccc([C@]4(F)CCCNC4)cc3F)nc12 [Example 36]
100 to 500	CC1(c2ccc(-n3cc4cc(F)cc(C(N)=O)c4n3)cc2)CCCNC1 (centres unmarked) [Example 46]
500 to 1000	CC1(c2ccc(-n3nc4c(C(N)=O)cccc4c3F)cc2)CCCNC1 (centres unmarked) [Example 52]
100 to 500	NC(=O)c1cccc2c(F)n(-c3ccc([C@]4(F)CCCNC4)cc3)nc12 [Example 33]
< 100	NC(=O)c1cccc2cn(-c3ccc(C4(F)CCCNC4)c(F)c3)nc12 (centres unmarked) [Example 28]
< 100	NC(=O)c1cccc2c(F)n(-c3ccc([C@]4(F)CCCNC4)cc3)nc12 [Example 30]
100 to 500	C[C@@]1(c2ccc(-n3cc4cccc(C(N)=O)c4n3)cc2F)CCCNC1 [Example 51]
100 to 500	C[C@@]1(c2ccc(-n3cc4cc(F)cc(C(N)=O)c4n3)cc2)CCCNC1 [Example 47]
500 to 1000	C[C@@]1(c2ccc(-n3nc4c(C(N)=O)cccc4c3F)cc2)CCCNC1 [Example 54]
100 to 500	NC(=O)c1cccc2cn(-c3ccc([C@@]4(F)CCCNC4)cc3F)nc12 [Example 35]
< 100	NC(=O)c1cc(F)cc2cn(-c3ccc([C@@]4(F)CCCNC4)cc3)nc12 [Example 27]
< 100	[2H][C@]1(c2ccc(-n3cc4cc(F)cc(C(N)=O)c4n3)cc2)CCCNC1 [Example 6]
< 100	[2H][C@]1(c2ccc(-n3cc4cccc(C(N)=O)c4n3)cc2F)CCCNC1 [Example 8]
100 to 500	C[C@]1(c2ccc(-n3cc4cccc(C(N)=O)c4n3)cc2F)CCCNC1 [Example 50]
< 100	[2H]C1(c2ccc(-n3cc4cc(F)cc(C(N)=O)c4n3)cc2F)CCCNC1 (centres unmarked) [Example 16]
100 to 500	[2H]C1(c2ccc(-n3nc4c(C(N)=O)cccc4c3F)cc2)CCCNC1 (centres unmarked) [Example 10]
100 to 500	C[C@]1(c2ccc(-n3cc4cccc(C(N)=O)c4n3)cc2)CCCNC1 (single isomer, unassigned) [Example 45, (R or S)-2-(4-(3-methylpiperidin-3-yl)phenyl)-2H-indazole-7-carboxamide]
< 100	[2H][C@@]1(c2ccc(-n3cc4cc(F)cc(C(N)=O)c4n3)cc2)CCCNC1 [Example 5]
< 100	NC(=O)c1cccc2cn(-c3ccc([C@]4(F)CCCNC4)cc3)nc12 (single isomer, unassigned) [Example 24, (R or S)-2-(4-(3-fluoropiperidin-3-yl)phenyl)-2H-indazole-7-carboxamide]
100 to 500	NC(=O)c1ccc(F)c2cn(-c3ccc([C@@]4(F)CCCNC4)cc3)nc12 [Example 42]
100 to 500	[2H]C1(c2ccc(-n3cc4cccc(C(N)=O)c4n3)c(F)c2)CCCNC1 (centres unmarked) [Example 13]
< 100	NC(=O)c1cccc2cn(-c3ccc(C4(F)CCCNC4)cc3)nc12 (racemic) [Example 22, 2-(4-(3-Fluoropiperidin-3-yl)phenyl)-2H-indazole-7-carboxamide]
100 to 500	C[C@]1(c2ccc(-n3cc4cccc(C(N)=O)c4n3)c(F)c2)CCCNC1 [Example 56]
100 to 500	NC(=O)c1cccc2c(F)n(-c3ccc([C@@]4(F)CCCNC4)cc3)nc12 [Example 32]

IC50 [nM]	Structure (SMILES)
< 100	[2H]C1(c2ccc(-n3cc4cc(F)cc(C(N)=O)c4n3)cc2)CCCNC1 (centres unmarked) [Example 4]
< 100	NC(=O)c1cc(F)cc2cn(-c3ccc([C@]4(F)CCCNC4)cc3)nc12 [Example 26]
< 100	[2H][C@]1(c2ccc(-n3cc4cc(F)cc(C(N)=O)c4n3)c(F)c2)CCCNC1 [Example 21]
100 to 500	[2H][C@]1(c2ccc(-n3cc4cccc(C(N)=O)c4n3)c(F)c2)CCCNC1 [Example 14]
< 100	NC(=O)c1cc(F)cc2cn(-c3ccc(C4(F)CCCNC4)cc3)nc12 (centres unmarked) [Example 25]
100 to 500	[2H][C@@]1(c2ccc(-n3nc4c(C(N)=O)cccc4c3F)cc2)CCCNC1 [Example 12]
100 to 500	CC1(c2ccc(-n3cc4cccc(C(N)=O)c4n3)cc2F)CCCNC1 (centres unmarked) [Example 49]
500 to 1000	C[C@]1(c2ccc(-n3nc4c(C(N)=O)cccc4c3F)cc2)CCCNC1 [Example 53]
100 to 500	NC(=O)c1c(F)ccc2cn(-c3ccc([C@]4(F)CCCNC4)cc3)nc12 [Example 38]
100 to 500	[2H][C@@]1(c2ccc(-n3cc4cccc(C(N)=O)c4n3)c(F)c2)CCCNC1 [Example 15]
100 to 500	NC(=O)c1cccc2c(F)n(-c3ccc(C4(F)CCCNC4)cc3)nc12 (centres unmarked) [Example 31]
100 to 500	[2H][C@]1(c2ccc(-n3nc4c(C(N)=O)cccc4c3F)cc2)CCCNC1 [Example 11]
100 to 500	NC(=O)c1ccc(F)c2cn(-c3ccc(C4(F)CCCNC4)cc3)nc12 (centres unmarked) [Example 40]
100 to 500	CC1(c2ccc(-n3cc4cccc(C(N)=O)c4n3)cc2)CCCNC1 (racemic) [Example 43, 2-(4-(3-Methylpiperidin-3-yl)phenyl)-2H-indazole-7-carboxamide]
< 100	[2H][C@@]1(c2ccc(-n3cc4cc(F)cc(C(N)=O)c4n3)c(F)c2)CCCNC1 [Example 20]
100 to 500	NC(=O)c1c(F)ccc2cn(-c3ccc(C4(F)CCCNC4)cc3)nc12 (centres unmarked) [Example 37]
100 to 500	C[C@]1(c2ccc(-n3cc4cccc(C(N)=O)c4n3)cc2)CCCNC1 [Example 44, (R or S)-2-(4-(3-methylpiperidin-3-yl)phenyl)-2H-indazole-7-carboxamide]
< 100	[2H]C1(c2ccc(-n3cc4cccc(C(N)=O)c4n3)cc2F)CCCNC1 (centres unmarked) [Example 7]
100 to 500	C[C@@]1(c2ccc(-n3cc4cccc(C(N)=O)c4n3)c(F)c2)CCCNC1 [Example 57]
100 to 500	CC1(c2ccc(-n3cc4cccc(C(N)=O)c4n3)c(F)c2)CCCNC1 (centres unmarked) [Example 55]
100 to 500	NC(=O)c1c(F)ccc2cn(-c3ccc([C@@]4(F)CCCNC4)cc3)nc12 [Example 39]
< 100	[2H][C@]1(c2ccc(-n3cc4cc(F)cc(C(N)=O)c4n3)cc2F)CCCNC1 [Example 18]
100 to 500	C[C@]1(c2ccc(-n3cc4cc(F)cc(C(N)=O)c4n3)cc2)CCCNC1 [Example 48]
100 to 500	NC(=O)c1ccc(F)c2cn(-c3ccc([C@]4(F)CCCNC4)cc3)nc12 [Example 41]
< 100	[2H][C@@]1(c2ccc(-n3cc4cccc(C(N)=O)c4n3)cc2F)CCCNC1 [Example 9]
< 100	NC(=O)c1cccc2cn(-c3ccc([C@@]4(F)CCCNC4)c(F)c3)nc12 [Example 29]

Tested on: not listed separately
Assay: Pharmacokinetic study in rats
Conditions: SD rats, PO 10 mg/kg
Experimental: SD rats were used as test animals, and the drug concentrations in plasma at different times after intravenous and intragastric administration of the compounds of examples were determined by LC/MS/MS method(s) to study the pharmacokinetics of the compound in the present disclosure in rats
Healthy adult male SD (Sprague-Dawley) rats, 3 animals per test compound, 6-9 weeks old, weighing 250±50 g, were purchased from Shanghai SLAC Laboratory Animal Co., Ltd.
The appropriate amount of sample was weighed out, 0.5% Methocel/2% tween 80 was added to the final volume, and 2 mg/mL was prepared for intragastric administration.
Each 3 male SD rats of each test compound were taken by intragastric administration at a dosage of 10 mg/kg after fasting overnight.
Blood samples of each animal were collected at different time points 0.083-24 h from jugular vein puncture after administration, K2-EDTA anticoagulation, centrifugation, and blood plasma were collected, frozen at −70° C. until LC/MS/MS analysis.

F [%]	exposure amount (AUC) compared with Niraparib, in words	Structure (SMILES)
62.3	significantly higher	[2H]C1(c2ccc(-n3cc4cccc(C(N)=O)c4n3)cc2)CCCNC1 (single isomer, unassigned) [Example 3, (R or S)-2-(4-(piperidin-3-D-3-yl)phenyl)-2H-indazole-7-carboxamide]

Same assay, conditions: SD rats, table head: Dose PO (10 mg/kg)

CL [mL/min/kg]	Vdss [L/kg]	Structure (SMILES)
24.9	6.04	[2H]C1(c2ccc(-n3cc4cccc(C(N)=O)c4n3)cc2)CCCNC1 (single isomer, unassigned) [Example 3, (R or S)-2-(4-(piperidin-3-D-3-yl)phenyl)-2H-indazole-7-carboxamide]

Same assay, conditions: male, Sprague-Dawley, rat, in vivo, po, 10 mg/kg

F [%]	MRT [h]	T1/2 [h]	Structure (SMILES)
61.3	4.63	2.64	NC(=O)c1cccc2cn(-c3ccc([C@]4(F)CCCNC4)cc3)nc12 (single isomer, unassigned) [Example 24, (R or S)-2-(4-(3-fluoropiperidin-3-yl)phenyl)-2H-indazole-7-carboxamide]

Same assay, conditions: male, Sprague-Dawley, rat, plasma, po, 10 mg/kg, AUC, SD rats, PO 10 mg/kg

AUC [ng·h/mL]	Structure (SMILES)
5160	[2H]C1(c2ccc(-n3cc4cccc(C(N)=O)c4n3)cc2)CCCNC1 (single isomer, unassigned) [Example 3, (R or S)-2-(4-(piperidin-3-D-3-yl)phenyl)-2H-indazole-7-carboxamide]

Same assay, conditions: male, Sprague-Dawley, rat, plasma, po, 10 mg/kg, Cmax, SD rats, PO 10 mg/kg

Cmax [ng/mL]	Structure (SMILES)
549	[2H]C1(c2ccc(-n3cc4cccc(C(N)=O)c4n3)cc2)CCCNC1 (single isomer, unassigned) [Example 3, (R or S)-2-(4-(piperidin-3-D-3-yl)phenyl)-2H-indazole-7-carboxamide]

Same assay, conditions: male, Sprague-Dawley, rat, plasma, po, 10 mg/kg, MRT, SD rats, PO 10 mg/kg

MRT [h]	Structure (SMILES)
7.95	[2H]C1(c2ccc(-n3cc4cccc(C(N)=O)c4n3)cc2)CCCNC1 (single isomer, unassigned) [Example 3, (R or S)-2-(4-(piperidin-3-D-3-yl)phenyl)-2H-indazole-7-carboxamide]

Same assay, conditions: male, Sprague-Dawley, rat, plasma, po, 10 mg/kg, T1/2, SD rats, PO 10 mg/kg

half-life [h]	Structure (SMILES)
3.18	[2H]C1(c2ccc(-n3cc4cccc(C(N)=O)c4n3)cc2)CCCNC1 (single isomer, unassigned) [Example 3, (R or S)-2-(4-(piperidin-3-D-3-yl)phenyl)-2H-indazole-7-carboxamide]

Target: hERG potassium ion channel (Homo sapiens, UniProt Q12809)
Sequence (Q12809 whole entry): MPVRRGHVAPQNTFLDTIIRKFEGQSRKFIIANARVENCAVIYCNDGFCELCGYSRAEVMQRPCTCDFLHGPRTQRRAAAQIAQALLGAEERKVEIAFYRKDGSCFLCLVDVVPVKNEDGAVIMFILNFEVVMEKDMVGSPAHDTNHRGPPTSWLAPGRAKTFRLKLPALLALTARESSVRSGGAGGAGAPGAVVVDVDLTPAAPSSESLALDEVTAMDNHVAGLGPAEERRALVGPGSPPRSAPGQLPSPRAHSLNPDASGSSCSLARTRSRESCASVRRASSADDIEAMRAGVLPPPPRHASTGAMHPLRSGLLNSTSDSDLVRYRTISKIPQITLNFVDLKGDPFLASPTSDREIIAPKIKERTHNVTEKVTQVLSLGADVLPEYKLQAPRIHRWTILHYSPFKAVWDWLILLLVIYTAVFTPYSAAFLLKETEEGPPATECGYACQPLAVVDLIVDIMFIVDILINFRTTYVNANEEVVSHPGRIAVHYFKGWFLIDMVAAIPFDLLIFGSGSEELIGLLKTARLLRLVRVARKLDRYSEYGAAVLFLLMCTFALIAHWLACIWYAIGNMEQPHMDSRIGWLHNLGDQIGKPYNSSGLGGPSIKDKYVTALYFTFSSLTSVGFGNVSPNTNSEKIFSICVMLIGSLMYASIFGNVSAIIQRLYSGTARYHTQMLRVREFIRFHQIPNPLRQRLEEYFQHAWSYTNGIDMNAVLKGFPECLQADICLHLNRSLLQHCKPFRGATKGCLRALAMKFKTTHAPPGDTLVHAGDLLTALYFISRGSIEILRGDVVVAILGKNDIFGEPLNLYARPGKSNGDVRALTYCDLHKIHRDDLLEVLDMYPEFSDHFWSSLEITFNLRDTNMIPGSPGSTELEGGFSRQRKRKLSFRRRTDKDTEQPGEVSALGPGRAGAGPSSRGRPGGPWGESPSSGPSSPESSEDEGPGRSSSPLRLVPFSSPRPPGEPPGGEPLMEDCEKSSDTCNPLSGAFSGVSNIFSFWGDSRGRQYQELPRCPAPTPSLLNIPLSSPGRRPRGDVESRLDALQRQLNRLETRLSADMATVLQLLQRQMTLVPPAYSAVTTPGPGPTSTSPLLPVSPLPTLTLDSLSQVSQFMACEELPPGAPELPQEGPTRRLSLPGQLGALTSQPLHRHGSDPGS
Assay: in vitro
Conditions: human
Experimental: CHO-hERG cells were cultured in a 175 cm^2 flask, and when the cell density was increased to 60-80%, the medium was removed and washed with 7 mL of PBS (Phosphate Buffered Saline phosphate buffer), and then digested with 3 mL of Detachin.
The single-cell high impedance sealing and the whole-cell mode formation process were all automatically completed by the Qpatch instrument. After obtaining the whole-cell recording mode, the cells were clamped at −80 mV (millivolt). Before giving a 5-second+40 mV depolarization stimulus, a 50 ms-50 mV pre-voltage was first given, repolarized to −50 mV for 5 seconds, and then returned to −80 mV. This voltage stimulation was applied every 15 seconds. After recording for 2 minutes, extracellular fluid was given for 5 minutes, and then the administration process was started. The compound concentration started from the lowest test concentration, and each test concentration was given for 2.5 minutes. […] At least 3 cells were tested at each concentration (n≥3).
The 20 mM compound mother solution was diluted with extracellular fluid, and 5 μL of 20 mM compound mother solution was added to 2495 μL of extracellular solution, diluted 500-fold to 40 μM, and then sequentially performed 3-fold continuous dilution in an extracellular fluid containing 0.2% DMSO to obtain the final concentration to be tested.
The experimental data were analyzed by XLFit software.

Structure (SMILES)	inhibition at 2.5 min, 40 µM [%]
COc1cc(N)c(Cl)cc1C(=O)NC1CCN(CCCOc2ccc(F)cc2)CC1OC (centres unmarked) [Cisapride]	87.4
